From ChEMBL document CHEMBL3132769, “Fragment growing to retain or alter the selectivity of anchored kinase hinge-binding fragments” (Medchemcomm, 2014) come the findings set out here.

Molecules are shown by their SMILES.

In assay [1] the target is T1, Mitogen-activated protein kinase 13 (Homo sapiens) (UniProt O15264).
T1 sequence (whole entry): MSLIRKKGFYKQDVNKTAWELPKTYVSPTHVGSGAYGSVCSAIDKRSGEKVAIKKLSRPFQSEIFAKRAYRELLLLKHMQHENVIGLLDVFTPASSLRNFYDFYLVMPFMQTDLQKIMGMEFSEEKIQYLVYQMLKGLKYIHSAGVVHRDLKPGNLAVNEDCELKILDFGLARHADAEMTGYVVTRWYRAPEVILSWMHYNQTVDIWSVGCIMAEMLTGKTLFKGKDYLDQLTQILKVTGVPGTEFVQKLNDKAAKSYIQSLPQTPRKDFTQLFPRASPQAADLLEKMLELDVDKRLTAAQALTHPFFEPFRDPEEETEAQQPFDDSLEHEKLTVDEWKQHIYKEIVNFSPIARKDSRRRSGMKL
Put plainly: Inhibition of human full length p38 delta expressed in Escherichia coli cell assessed as substrate phosphorylation using fluorescence-labelled peptides as substrate at 2 uM after 90 mins by microfluidic peptide phosphorylation assay.

For assay [2], the target named is Dual specificity tyrosine-phosphorylation-regulated kinase 1A (Rattus norvegicus) (UniProt Q63470). Description: Inhibition of rat full length DYRK1a expressed in Escherichia coli cell assessed as substrate phosphorylation using fluorescence-labelled peptides as substrate at 0.1 uM after 90 mins by microfluidic peptide phosphorylation assay.
The target in assay [3] is MAP/microtubule affinity-regulating kinase 3 (Homo sapiens) (UniProt P27448). Put plainly: Inhibition of human full length c-TAK1 expressed in Escherichia coli cell assessed as substrate phosphorylation using fluorescence-labelled peptides as substrate at 0.06 uM after 90 mins by microfluidic peptide phosphorylation assay.
For assay [4], the target named is Mitogen-activated protein kinase 14 (Homo sapiens) (UniProt Q16539). Put plainly: Inhibition of human truncated p38 alpha expressed in Escherichia coli cell assessed as substrate phosphorylation using fluorescence-labelled peptides as substrate at 0.06 uM after 90 mins by microfluidic peptide phosphorylation assay.
Assay [5] deals with Mitogen-activated protein kinase 3 (Homo sapiens) (UniProt P27361). Put plainly: Inhibition of human full length ERK1 expressed in Escherichia coli cell assessed as substrate phosphorylation using fluorescence-labelled peptides as substrate at 9 uM after 90 mins by microfluidic peptide phosphorylation assay.
Assay [6] concerns the target Serine/threonine-protein kinase MARK2 (Homo sapiens) (UniProt Q7KZI7). Description: Inhibition of human full length MARK2 expressed in baculovirus assessed as substrate phosphorylation using fluorescence-labelled peptides as substrate at 95 uM after 90 mins by microfluidic peptide phosphorylation assay.
The species entered for the next assay is Homo sapiens. Put plainly: Inhibition of human full length PKA expressed in baculovirus assessed as substrate phosphorylation using fluorescence-labelled peptides as substrate at 95 uM after 90 mins by microfluidic peptide phosphorylation assay.
Assay [7] concerns the target Calcium/calmodulin-dependent protein kinase type II subunit gamma (Homo sapiens) (UniProt Q13555). Put plainly: Inhibition of human CAMK2 gamma catalytic domain expressed in baculovirus assessed as substrate phosphorylation using fluorescence-labelled peptides as substrate at 8 uM after 90 mins by microfluidic peptide phosphorylation assay.
The target of assay [8] is T2, Testis-specific serine/threonine-protein kinase 1 (Homo sapiens) (UniProt Q9BXA7).
T2 sequence (whole entry): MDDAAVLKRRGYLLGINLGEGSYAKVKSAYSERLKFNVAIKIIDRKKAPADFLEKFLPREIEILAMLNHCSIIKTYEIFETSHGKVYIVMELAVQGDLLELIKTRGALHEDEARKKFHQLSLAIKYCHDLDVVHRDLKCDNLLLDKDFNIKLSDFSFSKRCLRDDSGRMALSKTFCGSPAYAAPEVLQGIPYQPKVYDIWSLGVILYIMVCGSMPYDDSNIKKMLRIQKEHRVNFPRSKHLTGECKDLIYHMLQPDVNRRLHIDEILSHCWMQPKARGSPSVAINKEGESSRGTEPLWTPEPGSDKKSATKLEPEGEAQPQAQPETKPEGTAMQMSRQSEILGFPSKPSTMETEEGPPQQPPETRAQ
Put plainly: Inhibition of human full length TSSK1 expressed in baculovirus assessed as substrate phosphorylation using fluorescence-labelled peptides as substrate at 8 uM after 90 mins by microfluidic peptide phosphorylation assay.

Assay [9] concerns the target Protein kinase C delta type (Homo sapiens) (UniProt Q05655). Put plainly: Inhibition of human truncated PKC delta expressed in baculovirus assessed as substrate phosphorylation using fluorescence-labelled peptides as substrate at 8 uM after 90 mins by microfluidic peptide phosphorylation assay.
Assay [10] has as its target T3, Serine/threonine-protein kinase D1 (Homo sapiens) (UniProt Q15139).
T3 sequence (whole entry): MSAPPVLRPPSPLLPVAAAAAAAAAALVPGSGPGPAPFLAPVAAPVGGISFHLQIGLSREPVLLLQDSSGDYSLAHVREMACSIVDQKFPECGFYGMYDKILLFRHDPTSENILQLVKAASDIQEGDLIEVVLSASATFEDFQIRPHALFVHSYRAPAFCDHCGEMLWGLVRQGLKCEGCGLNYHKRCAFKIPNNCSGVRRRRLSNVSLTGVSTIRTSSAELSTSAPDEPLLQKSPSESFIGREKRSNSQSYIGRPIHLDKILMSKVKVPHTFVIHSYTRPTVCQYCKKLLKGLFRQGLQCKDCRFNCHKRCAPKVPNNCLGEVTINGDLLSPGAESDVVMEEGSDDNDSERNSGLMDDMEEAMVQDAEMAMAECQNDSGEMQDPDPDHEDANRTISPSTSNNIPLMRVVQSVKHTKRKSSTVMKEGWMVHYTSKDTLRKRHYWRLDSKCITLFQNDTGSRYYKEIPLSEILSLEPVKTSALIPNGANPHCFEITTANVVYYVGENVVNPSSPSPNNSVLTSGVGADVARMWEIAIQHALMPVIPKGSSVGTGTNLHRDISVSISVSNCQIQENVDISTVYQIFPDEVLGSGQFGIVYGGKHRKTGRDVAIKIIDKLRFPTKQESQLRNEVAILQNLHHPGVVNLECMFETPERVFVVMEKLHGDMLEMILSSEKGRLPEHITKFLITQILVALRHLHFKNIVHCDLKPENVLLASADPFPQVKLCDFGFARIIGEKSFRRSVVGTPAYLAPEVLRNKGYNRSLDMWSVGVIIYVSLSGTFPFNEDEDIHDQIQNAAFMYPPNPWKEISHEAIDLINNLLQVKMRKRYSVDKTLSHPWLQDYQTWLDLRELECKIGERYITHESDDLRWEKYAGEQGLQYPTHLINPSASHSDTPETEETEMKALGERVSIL
Put plainly: Inhibition of human full length PKD1 expressed in baculovirus assessed as substrate phosphorylation using fluorescence-labelled peptides as substrate at 70 uM after 90 mins by microfluidic peptide phosphorylation assay.

The target in assay [11] is Insulin-like growth factor 1 receptor (Homo sapiens) (UniProt P08069). Description: Inhibition of human IGF1R catalytic domain expressed in baculovirus assessed as substrate phosphorylation using fluorescence-labelled peptides as substrate at 420 uM after 90 mins by microfluidic peptide phosphorylation assay.
The target in assay [12] is Calcium/calmodulin-dependent protein kinase type II subunit beta (Homo sapiens) (UniProt Q13554). Put plainly: Inhibition of human CAMK2 beta catalytic domain expressed in baculovirus assessed as substrate phosphorylation using fluorescence-labelled peptides as substrate at 1000 uM after 90 mins by microfluidic peptide phosphorylation assay.
Chain of Calcium/calmodulin-dependent protein kinase type II subunit beta (Homo sapiens) (Q13554 whole entry, the tested form may be a part): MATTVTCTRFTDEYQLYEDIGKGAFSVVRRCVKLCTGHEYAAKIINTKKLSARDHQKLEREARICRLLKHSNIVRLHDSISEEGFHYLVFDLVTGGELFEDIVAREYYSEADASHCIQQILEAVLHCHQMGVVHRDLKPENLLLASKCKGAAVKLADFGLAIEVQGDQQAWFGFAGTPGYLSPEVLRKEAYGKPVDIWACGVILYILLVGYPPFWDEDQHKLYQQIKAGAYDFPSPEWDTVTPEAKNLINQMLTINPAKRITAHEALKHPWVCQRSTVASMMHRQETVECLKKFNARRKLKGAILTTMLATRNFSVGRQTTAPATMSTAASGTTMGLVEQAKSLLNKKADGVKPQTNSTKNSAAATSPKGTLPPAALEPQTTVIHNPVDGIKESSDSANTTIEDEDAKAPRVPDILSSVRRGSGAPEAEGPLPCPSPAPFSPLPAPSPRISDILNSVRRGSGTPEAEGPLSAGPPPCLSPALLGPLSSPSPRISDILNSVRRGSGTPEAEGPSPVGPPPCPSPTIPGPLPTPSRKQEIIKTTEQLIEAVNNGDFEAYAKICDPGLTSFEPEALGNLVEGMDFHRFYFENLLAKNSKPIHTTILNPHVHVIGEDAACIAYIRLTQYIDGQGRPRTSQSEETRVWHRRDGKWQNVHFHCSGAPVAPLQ

Chain of Protein kinase C delta type (Homo sapiens) (Q05655 whole entry, looked up, the tested form may be a part): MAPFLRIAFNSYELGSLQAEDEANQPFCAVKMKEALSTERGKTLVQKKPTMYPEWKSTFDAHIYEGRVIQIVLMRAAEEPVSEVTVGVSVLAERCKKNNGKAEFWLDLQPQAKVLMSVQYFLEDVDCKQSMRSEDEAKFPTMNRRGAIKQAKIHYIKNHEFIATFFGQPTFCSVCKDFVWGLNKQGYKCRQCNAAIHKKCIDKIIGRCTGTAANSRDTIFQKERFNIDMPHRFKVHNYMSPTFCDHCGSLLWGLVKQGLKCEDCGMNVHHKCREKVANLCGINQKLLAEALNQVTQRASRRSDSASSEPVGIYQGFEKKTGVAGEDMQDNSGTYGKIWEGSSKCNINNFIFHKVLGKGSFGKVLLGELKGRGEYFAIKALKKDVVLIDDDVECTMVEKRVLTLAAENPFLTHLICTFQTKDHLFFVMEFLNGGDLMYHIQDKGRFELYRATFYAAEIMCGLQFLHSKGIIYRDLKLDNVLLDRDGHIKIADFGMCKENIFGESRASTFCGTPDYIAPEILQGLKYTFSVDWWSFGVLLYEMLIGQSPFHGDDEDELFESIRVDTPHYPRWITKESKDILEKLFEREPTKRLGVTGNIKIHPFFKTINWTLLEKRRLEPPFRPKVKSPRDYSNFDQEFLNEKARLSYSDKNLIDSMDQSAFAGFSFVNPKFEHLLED
Chain of Calcium/calmodulin-dependent protein kinase type II subunit gamma (Homo sapiens) (Q13555 whole entry, the tested form may be a part): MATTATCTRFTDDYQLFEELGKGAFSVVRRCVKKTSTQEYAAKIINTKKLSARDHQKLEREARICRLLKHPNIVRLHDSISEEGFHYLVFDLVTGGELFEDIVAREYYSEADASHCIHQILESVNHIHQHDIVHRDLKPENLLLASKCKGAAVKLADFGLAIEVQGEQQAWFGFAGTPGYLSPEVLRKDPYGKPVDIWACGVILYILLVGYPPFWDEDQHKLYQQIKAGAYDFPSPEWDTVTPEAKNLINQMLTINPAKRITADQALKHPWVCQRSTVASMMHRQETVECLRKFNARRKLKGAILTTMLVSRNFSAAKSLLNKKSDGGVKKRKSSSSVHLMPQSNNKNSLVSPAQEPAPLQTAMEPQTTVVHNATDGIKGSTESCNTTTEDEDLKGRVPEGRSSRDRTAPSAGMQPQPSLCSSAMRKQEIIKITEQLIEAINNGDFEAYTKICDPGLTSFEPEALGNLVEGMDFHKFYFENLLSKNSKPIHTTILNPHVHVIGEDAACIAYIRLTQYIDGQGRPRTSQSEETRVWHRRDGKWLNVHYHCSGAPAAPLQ
Chain of Mitogen-activated protein kinase 14 (Homo sapiens) (Q16539 whole entry, the tested form may be a part): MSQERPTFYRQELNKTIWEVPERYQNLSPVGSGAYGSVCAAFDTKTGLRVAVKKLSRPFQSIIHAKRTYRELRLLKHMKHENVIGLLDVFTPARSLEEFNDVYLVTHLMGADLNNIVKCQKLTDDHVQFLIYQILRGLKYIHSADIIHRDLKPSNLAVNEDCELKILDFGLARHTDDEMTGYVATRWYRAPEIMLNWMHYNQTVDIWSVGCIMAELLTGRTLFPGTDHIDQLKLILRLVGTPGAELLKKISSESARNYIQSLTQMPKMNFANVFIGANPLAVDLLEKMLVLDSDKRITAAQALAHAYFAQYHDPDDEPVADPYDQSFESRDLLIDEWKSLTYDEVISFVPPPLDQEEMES
Chain of MAP/microtubule affinity-regulating kinase 3 (Homo sapiens) (P27448 whole entry, looked up, the tested form may be a part): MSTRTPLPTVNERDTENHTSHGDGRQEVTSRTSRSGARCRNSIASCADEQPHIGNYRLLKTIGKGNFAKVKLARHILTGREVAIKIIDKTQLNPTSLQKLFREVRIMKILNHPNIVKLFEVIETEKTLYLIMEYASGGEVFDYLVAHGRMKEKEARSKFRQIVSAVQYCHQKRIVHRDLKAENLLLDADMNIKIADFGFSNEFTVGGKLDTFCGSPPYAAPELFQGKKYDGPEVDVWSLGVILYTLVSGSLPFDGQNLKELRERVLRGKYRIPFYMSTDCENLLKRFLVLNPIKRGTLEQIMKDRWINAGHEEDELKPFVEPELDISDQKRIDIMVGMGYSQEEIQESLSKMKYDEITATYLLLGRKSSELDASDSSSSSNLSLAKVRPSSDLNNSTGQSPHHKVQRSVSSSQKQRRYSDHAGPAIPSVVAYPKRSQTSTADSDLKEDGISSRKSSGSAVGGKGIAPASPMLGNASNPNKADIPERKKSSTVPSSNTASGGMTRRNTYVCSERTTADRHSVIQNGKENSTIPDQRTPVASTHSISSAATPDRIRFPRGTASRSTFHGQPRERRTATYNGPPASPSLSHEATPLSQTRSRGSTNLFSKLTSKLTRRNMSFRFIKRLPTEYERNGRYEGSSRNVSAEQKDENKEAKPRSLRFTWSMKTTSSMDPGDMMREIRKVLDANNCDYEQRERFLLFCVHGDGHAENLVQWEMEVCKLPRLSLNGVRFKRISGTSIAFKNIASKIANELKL
Chain of Serine/threonine-protein kinase MARK2 (Homo sapiens) (Q7KZI7 whole entry): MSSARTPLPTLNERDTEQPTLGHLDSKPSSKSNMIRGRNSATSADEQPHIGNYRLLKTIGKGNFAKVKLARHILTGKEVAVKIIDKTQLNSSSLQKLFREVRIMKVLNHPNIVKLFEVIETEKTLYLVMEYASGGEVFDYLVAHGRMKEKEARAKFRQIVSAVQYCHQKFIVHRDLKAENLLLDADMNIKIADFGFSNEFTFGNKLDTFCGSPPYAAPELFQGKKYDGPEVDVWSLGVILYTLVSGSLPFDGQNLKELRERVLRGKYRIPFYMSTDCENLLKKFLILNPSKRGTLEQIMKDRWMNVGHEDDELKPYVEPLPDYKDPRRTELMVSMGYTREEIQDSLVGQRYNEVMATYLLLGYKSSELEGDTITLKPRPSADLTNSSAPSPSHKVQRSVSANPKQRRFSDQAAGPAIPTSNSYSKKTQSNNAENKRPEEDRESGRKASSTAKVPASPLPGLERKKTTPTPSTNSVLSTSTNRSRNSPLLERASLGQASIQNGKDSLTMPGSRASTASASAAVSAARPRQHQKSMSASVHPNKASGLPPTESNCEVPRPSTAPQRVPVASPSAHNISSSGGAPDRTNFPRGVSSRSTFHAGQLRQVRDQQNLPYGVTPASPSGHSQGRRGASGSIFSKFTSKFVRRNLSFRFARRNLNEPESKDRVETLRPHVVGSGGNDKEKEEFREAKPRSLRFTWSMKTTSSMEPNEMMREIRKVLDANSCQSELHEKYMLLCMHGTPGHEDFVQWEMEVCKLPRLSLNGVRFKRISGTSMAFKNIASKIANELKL
Chain of Mitogen-activated protein kinase 3 (Homo sapiens) (P27361 whole entry): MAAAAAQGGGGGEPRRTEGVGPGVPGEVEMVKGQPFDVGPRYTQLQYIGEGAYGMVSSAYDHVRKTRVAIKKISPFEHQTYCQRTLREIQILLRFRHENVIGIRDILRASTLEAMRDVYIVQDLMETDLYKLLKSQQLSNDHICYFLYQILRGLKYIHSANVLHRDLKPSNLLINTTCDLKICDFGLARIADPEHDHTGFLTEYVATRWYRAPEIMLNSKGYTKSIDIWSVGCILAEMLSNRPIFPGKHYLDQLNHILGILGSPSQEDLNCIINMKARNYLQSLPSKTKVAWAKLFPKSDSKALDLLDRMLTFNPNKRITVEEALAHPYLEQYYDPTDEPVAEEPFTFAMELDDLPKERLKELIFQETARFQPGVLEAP

Turning to `NC1CCN(c2ncnc3[nH]ccc23)CC1`, the inhibition (commonly the change of the read-out against control, counted positive when it falls) in [1] turned out to be 8%.
As for `C[C@H](CN(C)C)Oc1nc(Nc2cc3cccc(Cl)c3cn2)cnc1C#N`, in [2], the inhibition stood at 3.5%.
For the compound `NC1(Cc2ccc(Cl)cc2)CCN(c2ncnc3[nH]ccc23)CC1`, the inhibition in assay [3] and in [4] was 0% each time.
For the compound `NCC1CN(c2ncnc3[nH]c4cnccc4c23)CCO1` (stereo not drawn), the inhibition in assay [5] was found to be 8.5%.
Take `NCCc1ccc(-c2ncnc3[nH]cnc23)cc1`: the inhibition in [6] is 67%; in the assay listed under Homo sapiens it was 97.5%.
Regarding `NCC1CCN(c2ncnc3[nH]ccc23)CC1`, the inhibition turned out to be 20.5% in assay [7], 25.5% in [8] and 67% in assay [9].
As to `CNCc1ccc(-c2ncnc3[nH]cnc23)cc1`, the inhibition in assay [10] is 54.5%.
With `c1nc(N2CCOCC2)c2nc[nH]c2n1`, the inhibition in [11] turned out to be 15%.
For `c1cnc2[nH]ccc2c1`, in [12], the inhibition worked out at 30%.
